According to patent publication US20040180817A1, “Neuropathologies associated with expression of tnf-$g (a)” (priority 2001, published 2004):
“Also recorded” adds a separate entry of the source.

Legend:
[1] = tested on: rrTNF-α-induced reduction in striatal rCBV; assay: Effect of ET receptor antagonist on rrTNF-α-induced acute rCBV reduction (MRI); format: in vivo, rat; details: 5 mg/kg i.v. 10 min prior to 1.5 μg intrastriatal rrTNF-α; 1.5 h
Experimental: (§1) Adult male Wistar rats (Harlan-Olac, UK) were anaesthetised with fentanyl/fluanisone and midazolam (0.68 ml/kg of each). Using a 50 μm-tipped glass pipette, 1 μl rat recombinant TNF-α (NIBSC, Potters Bar, UK) solution was injected stereotaxically 1 mm anterior and 3 mm lateral to Bregma, at a depth of 4 mm into the left striatum. Animals were injected with either 0.3 μg/μl or 1.5 μg/μl of TNF-A, each in 0.1% BSA in low-endotoxin saline, or with vehicle solution only. Animals were positioned in the MRI probe (3.4 cm i.d. Alderman-Grant resonator) using a bite-bar. During MRI, anaesthesia was maintained with 0.8-1.2% halothane in 50% N2O/50% O2, ECG was monitored non-invasively and body temperature was maintained at […]. All procedures were approved by the United Kingdom Home Office.
(§2) Magnetic resonance images were acquired using a 300 MHz Varian Inova spectrometer (Varian, Palo Alto, Calif.). […] Diffusion gradients were applied separately along three orthogonal axes and apparent diffusion coefficient (ADC) “trace” maps were calculated^40. […]
(§3) Regions of Interest (ROI) encompassing the striatum were defined on T2-weighted images in each hemisphere, and applied to all images or calculated data maps for quantitation. For the rCBV maps and T2-weighted images the data are expressed as a ratio of injected/non-injected striatal values. […]

[2] = tested on: rat brain striatum (tissue water diffusion); assay: Diffusion weighted MRI: apparent diffusion coefficient (ADC) of tissue water in striatum; format: in vivo; details: 24 h
Experimental: as §1, §2, §3

[3] = tested on: blood-cerebrospinal fluid barrier and blood-brain barrier; assay: Contrast-enhanced T1-weighted MRI of B-CSF-B / BBB permeability; format: in vivo, rat
Experimental: as §1
Magnetic resonance images were acquired using a 300 MHz Varian Inova spectrometer (Varian, Palo Alto, Calif.). Anatomical images were acquired using a T2-weighted sequence (repetition time, TR, 3 sec; echo time, TE, 80 msec). […] Diffusion gradients were applied separately along three orthogonal axes and apparent diffusion coefficient (ADC) “trace” maps were calculated^40. […]

## COc1cccc(Oc2c(NS(=O)(=O)c3ccc(C(C)(C)C)cc3)ncnc2OCCO)c1 [Ro 46-2005]
[1]
  effect on rrTNF-α-induced reduction in striatal rCBV: No significant differences; also recorded: eliminated
[2]; Ro 46-2005 i.v. pre-treatment + 1.5 μg rrTNF-α intrastriatal (left)
  Apparent Diffusion Coefficient, Right (control) striatum: 7.23 ± 0.17 ×10^−4 mm^2/sec
[2]; pre-treatment before 1.5 μg rrTNF-α
  effect of pre-treatment on TNF-α-induced reduction in ADC: not affected
[3]; Ro 46-2005 pre-treatment + 1.5 g TNF-α (so in the source), 24 h
  BBB breakdown: increase in signal intensity of injected striatum: 10.3±2.7%
[3]; pre-treatment before TNF-α, 1.5 h
  effect of pre-treatment on TNF-α-induced B-CSF-B breakdown: did not significantly alter
